# Measurements taken from ChEMBL document CHEMBL1799998, “Exploration of antimicrobial and antioxidant potential of newly synthesized 2,3-disubstituted quinazoline-4(3H)-ones” (Bioorg Med Chem Lett, 2011).
# What was measured:
# Format in all cases: functional
# Bacillus subtilis = assay: Antimicrobial activity against Bacillus subtilis after 24 hrs by disc diffusion method; note: test concentration or dose not given here
# Staphylococcus aureus = assay: Antimicrobial activity against Staphylococcus aureus after 24 hrs by disc diffusion method; note: test concentration or dose not given here
# [1] = tested on: Radical scavenging activity; assay: Antioxidant activity against DPPH free radical assessed as compound able to consume half the initial amount of DPPH free radical by spectrophotometry; conditions: TDE = time-dependent effect
# [2] = tested on: Radical scavenging activity; assay: Antioxidant activity against DPPH free radical assessed as compound able to consume half the initial amount of DPPH free radical after 30 to 60 mins by spectrophotometry
# Pseudomonas aeruginosa = assay: Antimicrobial activity against Pseudomonas aeruginosa after 24 hrs by disc diffusion method; note: test concentration or dose not given here
# Escherichia coli = assay: Antimicrobial activity against Escherichia coli after 24 hrs by disc diffusion method; note: test concentration or dose not given here
structure (smiles),measurement,setting,value
CC1=NC(=S)N(n2c(CCl)nc3ccccc3c2=O)C(=O)C1/N=N/c1ccc(O)c(O)c1 (centres undefined),inhibition zone (IZ),Bacillus subtilis,27 mm
same,inhibition zone (IZ),Staphylococcus aureus,31.5 mm
same,Activity,[1],tde
same,Activity,[2],Dose-dependent effect
same,IC50,[2],1.4 µM
same,inhibition zone (IZ),Pseudomonas aeruginosa,16 mm
same,inhibition zone (IZ),Escherichia coli,17.5 mm
O=C1O[C@H]([C@@H](O)CO)C(O)=C1O [ASCORBIC ACID],IC50,[2],9.2 µM
CC1=NC(=S)N(n2c(CCl)nc3ccccc3c2=O)C(=O)C1/N=N/c1cccc(C)c1O (centres undefined),inhibition zone (IZ),Bacillus subtilis,36.5 mm
same,inhibition zone (IZ),Staphylococcus aureus,44.5 mm
same,Activity,[1],tde
same,Activity,[2],Dose-dependent effect
same,IC50,[2],3.5 µM
same,inhibition zone (IZ),Pseudomonas aeruginosa,23.5 mm
same,inhibition zone (IZ),Escherichia coli,27.5 mm
CC1=NC(=S)N(n2c(CCl)nc3ccccc3c2=O)C(=O)C1/N=N/c1ccc(O)cc1O (centres undefined),inhibition zone (IZ),Bacillus subtilis,24.5 mm
same,inhibition zone (IZ),Staphylococcus aureus,30 mm
same,Activity,[1],tde
same,Activity,[2],Dose-dependent effect
same,IC50,[2],2.1 µM
same,inhibition zone (IZ),Pseudomonas aeruginosa,13.5 mm
same,inhibition zone (IZ),Escherichia coli,15.5 mm
CC1=NC(=S)N(n2c(CCl)nc3ccccc3c2=O)C(=O)C1/N=N/c1cccc(Cl)c1O (centres undefined),inhibition zone (IZ),Bacillus subtilis,31.5 mm
same,inhibition zone (IZ),Staphylococcus aureus,33.5 mm
same,Activity,[1],tde
same,Activity,[2],Dose-dependent effect
same,IC50,[2],8.3 µM
same,inhibition zone (IZ),Pseudomonas aeruginosa,21.5 mm
same,inhibition zone (IZ),Escherichia coli,20.9 mm
CC1=NC(=S)N(n2c(CCl)nc3ccccc3c2=O)C(=O)C1/N=N/c1ccc(C)cc1O (centres undefined),inhibition zone (IZ),Bacillus subtilis,33 mm
same,inhibition zone (IZ),Staphylococcus aureus,39 mm
same,Activity,[1],tde
same,Activity,[2],Dose-dependent effect
same,IC50,[2],5.1 µM
same,inhibition zone (IZ),Pseudomonas aeruginosa,22 mm
same,inhibition zone (IZ),Escherichia coli,25 mm
CC1=NC(=S)N(n2c(CCl)nc3ccccc3c2=O)C(=O)C1/N=N/c1ccc(Cl)cc1O (centres undefined),inhibition zone (IZ),Bacillus subtilis,29 mm
same,inhibition zone (IZ),Staphylococcus aureus,33 mm
same,Activity,[1],tde
same,Activity,[2],Dose-dependent effect
same,IC50,[2],7 µM
same,inhibition zone (IZ),Pseudomonas aeruginosa,18.5 mm
same,inhibition zone (IZ),Escherichia coli,20.5 mm
COc1ccc(/N=N/C2C(=O)N(n3c(CCl)nc4ccccc4c3=O)C(=S)N=C2C)cc1O (centres undefined),inhibition zone (IZ),Bacillus subtilis,42.1 mm
same,inhibition zone (IZ),Staphylococcus aureus,47.5 mm
same,Activity,[1],tde
same,Activity,[2],Dose-dependent effect
same,IC50,[2],3 µM
same,inhibition zone (IZ),Pseudomonas aeruginosa,28 mm
same,inhibition zone (IZ),Escherichia coli,30 mm
CC1=NC(=S)N(n2c(CCl)nc3ccccc3c2=O)C(=O)C1/N=N/c1ccc(O)cc1 (centres undefined),inhibition zone (IZ),Bacillus subtilis,18.5 mm
same,inhibition zone (IZ),Staphylococcus aureus,27 mm
same,Activity,[1],tde
same,Activity,[2],Dose-dependent effect
same,IC50,[2],5.4 µM
same,inhibition zone (IZ),Pseudomonas aeruginosa,10 mm
same,inhibition zone (IZ),Escherichia coli,13.5 mm
CC1(C)S[C@@H]2[C@H](NC(=O)[C@H](N)c3ccccc3)C(=O)N2[C@H]1C(=O)O [AMPICILLIN],inhibition zone (IZ),Bacillus subtilis,40 mm
same,inhibition zone (IZ),Staphylococcus aureus,36 mm
same,inhibition zone (IZ),Pseudomonas aeruginosa,20 mm
same,inhibition zone (IZ),Escherichia coli,28 mm
CC1=NC(=S)N(n2c(CCl)nc3ccccc3c2=O)C(=O)C1/N=N/c1ccc(O)c([N+](=O)[O-])c1 (centres undefined),inhibition zone (IZ),Bacillus subtilis,20 mm
same,inhibition zone (IZ),Staphylococcus aureus,29 mm
same,Activity,[1],tde
same,Activity,[2],Dose-dependent effect
same,IC50,[2],8.6 µM
same,inhibition zone (IZ),Pseudomonas aeruginosa,12 mm
same,inhibition zone (IZ),Escherichia coli,14 mm
CC1=NC(=S)N(n2c(CCl)nc3ccccc3c2=O)C(=O)C1/N=N/c1ccccc1 (centres undefined),inhibition zone (IZ),Bacillus subtilis,16.2 mm
same,inhibition zone (IZ),Staphylococcus aureus,24.5 mm
same,Activity,[1],tde
same,Activity,[2],Dose-dependent effect
same,inhibition zone (IZ),Pseudomonas aeruginosa,7 mm
same,inhibition zone (IZ),Escherichia coli,11.5 mm
